Test results reported in PubChem BioAssay AID1996.
Converted amounts (≈) assume the structure as drawn.

settings: buffer; pH 7.4; 200.0 µM

Row | Structure (SMILES) | solubility kinetic [µg/mL]
1 | O=C(NC(=O)c1ccccc1F)OCc1ccc(Cl)cc1Cl | < 0.7
2 | COc1ccc(C(=O)OCC(=O)NCCc2ccc(F)cc2)cc1S(=O)(=O)N1CCOCC1 | > 72.1
3 | COc1ccccc1CNC(=O)CNC(=O)c1sc2ccccc2c1Cl | 7.6 (≈ 19.5 µM)
4 | COc1cc(C(N)=O)cc(Cl)c1OC | > 32.3
5 | CCN(c1ccccc1)S(=O)(=O)c1cc(NC(=O)CN2CCN(C)CC2)ccc1Cl.O=C(O)C(=O)O | > 81.2
6 | O=C(CN1CCN(c2ccc([N+](=O)[O-])cc2)CC1)c1ccccc1 | 22.5 (≈ 69.2 µM)
7 | COC(=O)c1ccc(NC(=S)N2CCN(C)CC2)cc1 | > 44
8 | Cc1cccc(CN2CCSCC2)c1 | 7 (≈ 33.8 µM)
9 | COc1ccc2nc(/N=C/c3cccc(OC)c3O)sc2c1 | > 47.2
10 | Cc1ccc(NC(=O)CC2(CC(=O)O)CCCC2)c(C)c1 | 40.8 (≈ 141 µM)
11 | CC1=CC(C)(C)NC(=S)N1c1ccccc1C | 13.6 (≈ 55.2 µM)
12 | CC1CC(C)(C)NC(=S)N1CC(=O)NCc1ccc2c(c1)OCO2 (stereo not given) | 36.2 (≈ 104 µM)
13 | CSc1ccc(CN2C(=O)NC3(CCCCCCC3)C2=O)cc1 | 5.6 (≈ 16.8 µM)
14 | Cc1ccc(SCc2cn3ccccc3n2)cc1 | 37 (≈ 145 µM)
15 | COC(=O)c1ccc(NC(=O)c2ccc3c(c2)C(=O)N(C)C3=O)cc1 | < 0.4
16 | CCCCn1c(O)c(C(C)=NCCc2c[nH]c3ccccc23)c(=O)[nH]c1=O | 0.4 (≈ 1.09 µM)
17 | COc1ccc2c(c1)c(CC(=O)OCC(=O)O)c(C)n2C(=O)c1ccc(Cl)cc1 | > 62.4
18 | CSc1nc(N2CCOCC2)c2sccc2n1 | 38.6 (≈ 144 µM)
19 | CCCc1ccc(NS(=O)(=O)c2c(C)oc(C)c2C(=O)OC)cc1 | 7.4 (≈ 21.1 µM)
20 | CC(Sc1ccc2ccccc2c1)C(=O)NC(N)=O (stereo not given) | 8.6 (≈ 31.3 µM)
21 | COc1cccc(N2CCN(C(=O)CSc3ccc(F)cc3)CC2)c1 | 50.2 (≈ 139 µM)
22 | O=S(=O)(NCCN1CCOCC1)c1cc(Cl)ccc1Cl | 41.6 (≈ 123 µM)

Row | Structure (SMILES) | solubility kinetic [µg/mL]
23 | CC(=O)Nc1ccc(Nc2nc(C)cc(C)n2)cc1 | > 38.4
24 | N#CN(Cc1ccccc1)Cc1ccccc1 | 18.6 (≈ 83.7 µM)
25 | N#CC(CCN1CCOCC1)(c1ccccc1)c1ccccc1 | 43.1 (≈ 141 µM)
26 | CCc1noc(C)c1C(=O)OC(C)C(=O)Nc1ccc2c(c1)OCO2 (stereo not given) | 14.4 (≈ 41.6 µM)
27 | COc1ccc(NC(=O)/C=C/C(=O)O)c(OC)c1 | 37 (≈ 147 µM)
28 | CC(C)(C)c1ccc(/C=C(\C#N)C(=O)NC2CC2)cc1 | 3.7 (≈ 13.8 µM)
29 | Cc1cc(N2CCOCC2)n2cc(-c3ccccc3)nc2n1 | 12.3 (≈ 41.8 µM)
30 | CC1(C)N=c2ccc([N+](=O)[O-])c(N)c2=[N+]1[O-] | 30 (≈ 135 µM)
31 | O=C(COC(=O)c1ccc([N+](=O)[O-])cc1)NC1CCCC1 | 21.2 (≈ 72.5 µM)
32 | CCC(=O)c1ccc(OC(C)C(=O)NC2(C#N)CCCCC2)cc1 (stereo not given) | 25 (≈ 76.1 µM)
33 | Cc1cc(-c2nnc(CCC(=O)NCc3ccc(F)c(F)c3)o2)no1 | > 52.2
34 | O=C(Nc1ccccc1)c1cccc2c(Br)cccc12 | < 0.7
35 | COC(=O)Cn1c(C)nc([N+](=O)[O-])c1Br | 31.9 (≈ 115 µM)
36 | COc1ccc(NC(=O)CSc2cc(C)ccc2C)cn1 | 45.1 (≈ 149 µM)
37 | COc1cc(NC(=O)CN2C(=O)NC(CC(C)C)C2=O)cc(OC)c1OC (stereo not given) | > 56.9
38 | CC(OC(=O)c1ccncc1)C(=O)Nc1cccc([N+](=O)[O-])c1 (stereo not given) | > 47.3
39 | Cc1ccc(S(=O)(=O)N2CCN(C(=O)c3ccco3)CC2)c(C)c1 | 49 (≈ 141 µM)
40 | O=c1c([N+](=O)[O-])cccn1Cc1cccc(Cl)c1 | > 39.7
41 | CC1CCCN(S(=O)(=O)c2cnc[nH]2)C1 (stereo not given) | > 34.4
42 | Cc1nc(SCC(=O)N2CC(=O)Nc3ccccc32)nc(C)c1C | 10.8 (≈ 31.5 µM)
43 | Cc1cc(=O)n(Cc2ccccc2)c(O)c1C#N | 32.2 (≈ 134 µM)
44 | O=C(NCc1cccnc1)Nc1cccc(Cl)c1 | 37.2 (≈ 142 µM)

Row | Structure (SMILES) | solubility kinetic [µg/mL]
45 | Cc1ccc(NS(=O)(=O)c2cccc(C(=O)Nc3cccnc3)c2)c(C)c1 | 6 (≈ 15.7 µM)
46 | COc1nc(Nc2ccccc2)nc(OC)n1 | > 34.8
47 | COc1ccc2cc(C(=O)NCCCN3CCCC3=O)[nH]c2c1 | > 47.3
48 | COCCCn1c(=O)c2sccc2n(Cc2ccccc2)c1=O | 49.4 (≈ 150 µM)
49 | CCOC(=O)C1CCN(C(C)C(=O)c2c[nH]c3ccccc23)CC1 (stereo not given) | > 49.3
50 | Cc1ccc(Nc2c(-c3ccc(N(C)C)cc3)nc3ncccn23)cc1 | 1 (≈ 2.91 µM)
51 | CCN1CCN(C(=O)C2COc3ccccc3O2)CC1 (stereo not given) | > 41.5
52 | CCc1ccccc1NC(=O)Nc1ccon1 | 29.1 (≈ 126 µM)
53 | Cc1ccc2cccc(OCCCOc3ccccc3CO)c2n1 | 38.1 (≈ 118 µM)
54 | CCOCCCn1c(=NC(C)=O)c(C#N)cc2c(=O)n3ccccc3nc21 | > 54.8
55 | CCN(CC(=O)NC(=O)NC1CCCC1)Cc1ccccc1 | > 45.5
56 | Cc1cccc(NC(=O)Cn2cc(C(=O)C3CC3)c3ccccc32)c1 | < 0.4
57 | COc1ccc(-c2cc(C(=O)N3CCCCC3)c3ccccc3n2)cc1OC | 51.6 (≈ 137 µM)
58 | CS(=O)(=O)N(CC(=O)N1CCCC1)c1ccccc1Br | > 54.2
59 | CCn1c(SC)nc2cc(S(=O)(=O)N3CCCCC3)ccc21 | 43.6 (≈ 128 µM)
60 | Cc1ccc(Cl)cc1NC(=O)C1CCCN(S(C)(=O)=O)C1 (stereo not given) | 5.8 (≈ 17.5 µM)
61 | O=C(CC1Sc2ccccc2NC1=O)NCc1ccccc1 (stereo not given) | 0.4 (≈ 1.28 µM)
62 | O=C(NCc1ccccc1)c1nc2ccccc2s1 | 17.4 (≈ 64.8 µM)
63 | Cc1cc(C(=O)NN=C2CCCC2)c2ccccc2n1 | > 40.1
64 | Cc1ccccc1NS(=O)(=O)c1ccc2c(c1)oc(=O)n2C | 2.3 (≈ 7.22 µM)
65 | CC1(C)CC2(C)OCCN2C(=S)N1 (stereo not given) | > 30
66 | CCCCC(CCC(=O)Nc1cccc([N+](=O)[O-])c1)C(=O)O (stereo not given) | 43.7 (≈ 142 µM)

Row | Structure (SMILES) | solubility kinetic [µg/mL]
67 | CC1(C(=O)OCC(=O)NCc2ccc(Cl)cc2)CC1(Cl)Cl (stereo not given) | 52.5 (≈ 150 µM)
68 | O=C(N/N=C/c1ccc(O)c(O)c1)C1CC1 | > 33
69 | COc1ccc(C(=O)NCc2cc3ccccc3n2C)cc1 | 3.7 (≈ 12.6 µM)
70 | CC1(C)C(c2cccs2)=[N+]([O-])C2(CCCCC2=O)N1O (stereo not given) | 41.4 (≈ 141 µM)
71 | CCc1ccc(N2CC(C(=O)NC3CC3)CC2=O)cc1 (stereo not given) | > 40.9
72 | CC(=O)NCCc1nc2ccccc2n1CCOc1ccccc1 | > 48.5
73 | CCC(=O)N(CCC(c1ccc(C)cc1)c1ccco1)Cc1ccco1 (stereo not given) | 45.6 (≈ 130 µM)
74 | CC(C)c1onc(C(=O)Nc2cccc(O)c2)c1[N+](=O)[O-] | 37.4 (≈ 128 µM)
75 | COc1cccc(CN(C)C(=O)CCN=C2NS(=O)(=O)c3ccccc32)c1 | > 58.1
76 | COc1ccc(CNC(=O)Cc2cccs2)cc1OC | 42.6 (≈ 146 µM)
77 | Cc1cc(Cl)ccc1OC(C)C(=O)OCC(=O)c1ccc[nH]1 (stereo not given) | 4 (≈ 12.4 µM)
78 | COC(=O)c1ccc2c(c1)C(C)(C)C(/C=C/c1ccc(O)cc1)=[N+]2C.[I-] | 41.6
79 | Cc1ccc(C(=O)Nc2nc3ccccc3[nH]2)cc1 | 2.4 (≈ 9.55 µM)
80 | Nc1nc(Nc2ccccc2F)nc(N2CCCC2)c1[N+](=O)[O-] | 25.8 (≈ 81.1 µM)
81 | COc1ccccc1CCC(=O)N(C)CC(=O)Nc1ccc(F)cc1 | 20.4 (≈ 59.2 µM)
82 | Cc1ccc(N2C(=O)CC(Nc3cccc4ccccc34)C2=O)cc1 (stereo not given) | 3.8 (≈ 11.5 µM)
83 | O=C(O)c1ccccc1SCc1csc(-c2ccccc2)n1 | > 49.1
84 | COc1ccc(N2CC(C(=O)NC3CCCCC3)CC2=O)cc1 (stereo not given) | 25.3 (≈ 80 µM)
85 | COc1ccc2c(c1)[nH]c1c(=O)n(Cc3ccncc3)cnc12 | 5.1 (≈ 16.6 µM)
